Measured values reported in paper PMC10067442, “In vivo quantitative high-throughput screening for drug discovery and comparative toxicology” (Disease Models & Mechanisms, 2023).
pEC50: −log10 of the molar value. Entries after “also recorded” stand apart in the source; their conditions may differ. Structures can show the parent of a compound that is named as a salt. Where two headings read alike, the source gives them in different places. Residues, ends and D or L forms follow the SMILES beside them. *: point of attachment. Cbz = O=C(OCc1ccccc1)*

Experiments:
Assay type in all cases: in vivo, Caenorhabditis elegans
[1] = tested on: C. elegans strain PE254; experiment: C. elegans LSC qHTS viability assay, Anti-Infectives library primary screen (BG-fed, 384-well); conditions: for activity on C. elegans viability in primary qHTS (in words): seven-point titration; for pEC50: Caenorhabditis elegans, Fig. 3D
Method: Levamisole, ivermectin and albendazole were purchased from Sigma-Aldrich. Stock solutions of all compounds were prepared at 10 mM in DMSO, and ivermectin was diluted to a 10 µM working dilution in DMSO. […] Of these, 284 (38%) are approved for clinical use in the United States, 32 (4%) were previously marketed for use in the United States, and 62 (8%) are used clinically outside of the United States. […] DMSO stock solutions of were arrayed in Echo-qualified 384-well cyclic olefin copolymer plates (Labcyte) in qHTS inter-plate dilution with seven concentrations, 1:5 dilution, resulting in a final concentration range of 2.5–20 mM high concentration titrated to 160 nM to 1.28 µM low concentration ([Yasgar et al., 2008]). ‘Assay-ready’ plates were prepared in 384-well uClear microtiter plates (Greiner BioOne), with compounds acoustically dispensed at 250 nl per well with an Echo 555 in the above inter-plate titration array. Two plates with DMSO added across the compound field at the same volume were prepared as screening controls (‘uniformity plates’). DMSO vehicle control was added to every well of column 1, and levamisole cytotoxicity control was added at a high concentration of 10 mM in wells 1–8 and titrated 1:3, starting at a high concentration of 10 mM to 4.57 µM in wells 9–16 of column 2 of every plate. Additionally, ivermectin, levamisol and albendazole were plated as internal controls on one assay plate in 16-point, 1:2 titration down six replicate columns per compound, starting at a high concentration of 10 µM (ivermectin) or 10 mM (levamisole and albendazole). Assay-ready plates were sealed and frozen at −80°C until use.
C. elegans strain PE254 were collected from 12 NGM plates as above, transferred to 250 ml S medium supplemented with OP50 E. coli pellet collected from 2 l overnight culture, and grown for 5 days at 21°C with vigorous shaking in an Incu-Shaker Mini Shaking Incubator (Benchmark Scientific, Inc.). Eggs were axenized as above and hatched overnight in M9 buffer at 21°C and shaken at 65 rpm. Assay ready plates were thawed and allowed to equilibrate to ambient temperature. BGs in S medium (30 µl/well) at an OD600=0.85 were manually added across plates with a Capp pipette. Synchronized L1 worms from above were collected, diluted and plated at ten worms/30 µl/well with a Capp pipette into assay-ready microtiter plates pre-plated with BGs and compounds (240-fold dilution). […] No ethical approval or guidance is needed for working with nematodes.
Data from the Anti-Infectives screen were normalized by plate to corresponding intra-plate controls as previously described ([Inglese et al., 2006]). Assay statistics were calculated using the same respective controls. Total object ‘GFP’ area (µm^2) and number of worms were normalized to the average signal of DMSO-treated wells as zero percent neutral control, and the average signal of 41.7 µM levamisole-treated wells as −100% activity. In-house software was used to fit the resulting inter-plate titration data to the standard Hill equation, and concentration–response curves were classified by activity as previously described ([Southall et al., 2009]). Curve fits assignments of −1.1, −1.2, −2.1, −2.2 and −3 were considered active and visually confirmed.

[2] = tested on: C. elegans strain PE254; experiment: Follow-up 11-point re-test, C. elegans LSC viability; conditions: 11-point titration, day 7, GFP area and worm number
Method: C. elegans strain PE254 were collected from six NGM plates and washed. […] Assay-ready plates were prepared as above with an 11-point, 1:3 titration of 96 compounds identified as active from the qHTS screen based on curve classification and maximum response. […] Data were normalized as above, and concentration–response curves were fit in Prism with nonlinear regression log(agonist) versus response–variable slope (four parameters) fit.

[3] = tested on: C. elegans strain PE254; experiment: Life-stage distribution analysis by COPAS flow cytometry after 7-day treatment; conditions: 7-day treatment at ∼EC75-80, mixed population of 2000 worms/well
Method: After 7 days of compound treatment in six-well culture plates seeded with a mixed population of 2000 C. elegans strain PE254, a life-stage distribution analysis was determined by TOF and EC using the COPAS FP BioSorter, followed by bulk collection in a 50 ml conical tube for use in proteomics studies.

[4] = read-out: qHTS potency based on GFP area
[5] = read-out: qHTS potency based on worm number

## C=CC(=O)N1C/C(=C\c2ccc([N+](=O)[O-])cc2)C(=O)/C(=C/c2ccc([N+](=O)[O-])cc2)C1 [b-AP15]
[1]; GFP area
  activity on C. elegans viability in primary qHTS (in words): Inactive

## COc1cc2c(cc1-c1c(C)noc1C)ncc1[nH]c(=O)n([C@H](C)c3ccccn3)c12 [I-BET151]
[1]; GFP area
  activity on C. elegans viability in primary qHTS (in words): inactive

## oligomycin A
[2]
  activity on C. elegans viability in follow-up (in words): best activity; also recorded: potent and/or efficacious toxicity

## O=C(/C=C\n1cnc(-c2cc(C(F)(F)F)cc(C(F)(F)F)c2)n1)NNc1ccccn1 [Verdinexor, verdinexor]
[2]
  activity on C. elegans viability in follow-up (in words): moderately active
[1]; GFP area
  activity on C. elegans viability in primary qHTS (in words): low potency and efficacy

## O=[N+]([O-])c1ccc(S(=O)(=O)N2CCN(c3ccnc4cc(Cl)ccc34)CC2)c([N+](=O)[O-])c1 [VR23]
[1]; GFP area
  activity on C. elegans viability in primary qHTS (in words): Inactive

## CC(C)C[C@H](NC(=O)[C@@H](NC(=O)c1cccc(-c2ccccc2)n1)[C@@H](C)O)B(O)O [Delanzomib]
[1]; [4]
  pEC50: 6.39
[1]; [5]
  pEC50: 6.51

## CC(C)C[C@H](NC(=O)CNC(=O)c1cc(Cl)ccc1Cl)B(O)O [Ixazomib]
[1]; [4]
  pEC50: 5.95
[1]; [5]
  pEC50: 6.06

## Cc1noc2c1-c1ccccc1C(c1ccc(Cl)cc1)=N[C@H]2CC(N)=O [CPI-0610]
[1]; GFP area
  activity on C. elegans viability in primary qHTS (in words): Active

## CC(C)(C)c1cc(C=C(C#N)C#N)cc(C(C)(C)C)c1O [Tyrphostin A9, tyrphostin A9]
[2]
  activity on C. elegans viability in follow-up (in words): best activity; also recorded: potent and/or efficacious toxicity

## CC(C)C[C@H](NC(=O)[C@H](CCc1ccccc1)NC(=O)CN1CCOCC1)C(=O)N[C@@H](Cc1ccccc1)C(=O)N[C@@H](CC(C)C)C(=O)[C@@]1(C)CO1 [Carfilzomib]
[1]; GFP area
  activity on C. elegans viability in primary qHTS (in words): Inactive

## Cc1sc2c(c1C)C(c1ccc(Cl)cc1)=N[C@@H](CC(=O)OC(C)(C)C)c1nnc(C)n1-2 [JQ1]
[1]; GFP area
  activity on C. elegans viability in primary qHTS (in words): Active

## O=C(NO)c1cccc(C(=O)NCCc2ccccc2)c1 [BRD73954]
[1]; GFP area
  activity on C. elegans viability in primary qHTS (in words): inactive

## Cc1cc(/C=C/c2ccc3cc(N(C)C)ccc3[n+]2C)c(C)n1-c1ccccc1 [Pyrvinium pamoate]
[1]; GFP area
  activity on C. elegans viability in primary qHTS (in words): active

## CCNC(=O)C[C@@H]1N=C(c2ccc(Cl)cc2)c2cc(OC)ccc2-n2c(C)nnc21 [I-BET762]
[1]; GFP area
  activity on C. elegans viability in primary qHTS (in words): Active

## O=C(C1CCCCC1)N1CC(=O)N2CCc3ccccc3C2C1 (stereo not drawn) [Praziquantel]
[1]; GFP area, day 7
  curve classification (CC): 4
[1]; GFP area
  activity on C. elegans viability in primary qHTS (in words): not detected; also recorded: not identified as active
[3]
  effect on life stage viability (in words): no effect

## CC(C)C[C@H](NC(=O)[C@H](Cc1ccccc1)NC(=O)c1cnccn1)B(O)O [Bortezomib]
[1]; [4]
  pEC50: 6.05
[1]; [5]
  pEC50: 6.23
[3]
  effect on life stage viability (in words): potent larval-stage depletion
[3]; listed as 5
  effect on life stage viability (in words): affecting life-stage progression or number

## O=C(Oc1ccc([N+](=O)[O-])cc1)N1CCC(C(O)(c2ccc3c(c2)OCO3)c2ccc3c(c2)OCO3)CC1 [JZL-184]
[2]
  activity on C. elegans viability in follow-up (in words): moderately active
[1]; GFP area
  activity on C. elegans viability in primary qHTS (in words): low potency and efficacy

## CC(=O)Nc1cccc(-n2c(=O)n(C3CC3)c(=O)c3c(Nc4ccc(I)cc4F)n(C)c(=O)c(C)c32)c1 [Trametinib]
[3]
  effect on life stage viability (in words): potent larval-stage depletion
[3]; listed as 9
  effect on life stage viability (in words): affecting life-stage progression or number

## CC(=O)N1c2ccc(-c3ccc(C(=O)O)cc3)cc2[C@H](Nc2ccc(Cl)cc2)C[C@@H]1C [GSK1324726A]
[1]; GFP area
  activity on C. elegans viability in primary qHTS (in words): Active

## COC(=O)[C@]1(C)CC[C@]2(C)CC[C@]3(C)C4=CC=C5C(=CC(=O)C(O)=C5C)[C@]4(C)CC[C@@]3(C)[C@@H]2C1 [Pristimerin, pristimerin]
[2]
  activity on C. elegans viability in follow-up (in words): potent and/or efficacious toxicity

## CC(C)C[C@H](NC(=O)CNC(=O)c1cc(Cl)ccc1Cl)B1OC(=O)C(CC(=O)O)(CC(=O)O)O1 [Ixazomib citrate]
[1]; [4]
  pEC50: 6.39
[1]; [5]
  pEC50: 6.42

## CC(=O)OC[C@H]1O[C@@H]([S-])[C@H](OC(C)=O)[C@@H](OC(C)=O)[C@@H]1OC(C)=O.CCP(CC)CC.[Au+] [Auranofin, auranofin]
[2]
  activity on C. elegans viability in follow-up (in words): best activity; also recorded: potent and/or efficacious toxicity

## CC[C@H](C)[C@H](NC(=O)[C@H]([C@@H](C)CC)N(C)C(C)=O)C(=O)N[C@H](C(=O)N[C@@H](CC(C)C)C(=O)[C@@]1(C)CO1)[C@@H](C)O [Epoxomicin]
[1]; GFP area
  activity on C. elegans viability in primary qHTS (in words): Inactive

## CCCC[C@@H](C=O)NC(=O)[C@H](CC(C)C)NC(=O)OCc1ccccc1 [Calpeptin]
[1]; GFP area
  activity on C. elegans viability in primary qHTS (in words): Inactive

## Cc1sc2c(c1C)C(c1ccc(Cl)cc1)=N[C@@H](CC(=O)Nc1ccc(O)cc1)c1nnc(C)n1-2 [OTX-015]
[1]; GFP area
  activity on C. elegans viability in primary qHTS (in words): inactive

## COC[C@H](NC(=O)c1cnc(C)s1)C(=O)N[C@@H](COC)C(=O)N[C@@H](Cc1ccccc1)C(=O)[C@@]1(C)CO1 [Oprozomib]
[1]; GFP area
  activity on C. elegans viability in primary qHTS (in words): Inactive

## O=C(/C=C\n1cnc(-c2cc(C(F)(F)F)cc(C(F)(F)F)c2)n1)NNc1cnccn1 [Selinexor]
[2]
  activity on C. elegans viability in follow-up (in words): moderately active
[1]; GFP area
  activity on C. elegans viability in primary qHTS (in words): low potency and efficacy
[3]
  effect on life stage viability (in words): inactive

## C[C@H](NC(=O)[C@@H](O)c1cc(F)cc(F)c1)C(=O)N[C@@H]1C(=O)N(C)c2ccccc2-c2ccccc21 [LY-411575]
[3]
  effect on life stage viability (in words): affecting life-stage progression or number

## CC(C)C[C@@H](C=O)NC(=O)[C@H](CC(C)C)NC(=O)[C@H](CC(C)C)NC(=O)OCc1ccccc1 [MG-132] (Cbz-Leu-Leu-Leu-aldehyde)
[1]; GFP area
  activity on C. elegans viability in primary qHTS (in words): Inactive
[3]
  effect on life stage viability (in words): no discernable effect

## Cn1cnc2c(F)c(Nc3ccc(Br)cc3Cl)c(C(=O)NOCCO)cc21 [Selumetinib]
[3]
  effect on life stage viability (in words): no discernable effect
[3]; listed as 10
  effect on life stage viability (in words): inactive
